Like-named read-outs stand apart in the source and are kept apart here.
What was measured:
[1] = Growth and viability of lymphoblastoid cell cultures of the Namalva strain; type: cell-based; conditions: human, namalva lymphoblastoid cells, control = 100%; for activity: read-out: Cell Culture Growth %; for viability: read-out: Cell Culture Viability %
mice = assay: Injection into the tail vein of mice (deaths, growth); type: in vivo; conditions: 500 μl in NaCl 9%, 10 mice of 20-25g, observed for 35 days
[2] = Fluorocarbon (F-decalin) emulsions: average particle size and stability; type: physicochemical; conditions: for increase in average particle size: perfluorodecalin (50% w/v) emulsions, 2 or 3% w/v sole surfactant
Description: ^a Emulsions prepared by microfluidization.
Additional stable perfluorodecalin (50% w/v) emulsions based on the perfluoroalkylated phosphatidylcholines 11 or 12 (2 or 3% w/v) as the sole surfactant have been prepared by sonication.
^a Emulsions prepared by sonication
^b The emulsions are stored at 25° C.
^c The emulsions are stored at 50° C.
^a All the emulsions are prepared by microfluidization and stored at
The new perfluoroalkylated surfactants were solubilized or dispersed into water. Then the fluorocarbon was added under agitation. Any emulsification method like sonication can be used but mechanical procedures such as microfluidization or high pressure homogenization are preferred. The emulsion obtained can be used as an O2 carrier. The significant stabilization effect which can be obtained by incorporating the new F-alkyl surfactants is illustrated for various emulsion formulations (see Tables above).

[3] = Surface tension of aqueous solutions at 20° C.; type: physicochemical; conditions: (+0.3)
Description: (§1) The strong surface activity of the compounds encompassed by this invention is illustrated in particular by the strong lowering of the surface tension (γs) they cause when added to water, as shown by the examples of surface tensions (measured at 20° C. and expressed in milliNewton.meter^-1) and calculated spreading coefficients collected in the Table below: […]

[4] = Interfacial tension and spreading coefficient between water and perfluorodecalin; type: physicochemical; conditions: for γi (interfacial tension between water and perfluorodecalin): (+0.3), 56 mNm^-1 in the absence of surfactant; for Spreading Coef.: -56 mNm^-1 in the absence of surfactant
Description: as §1

[5] = Liposome preparation: average size and stability; type: physicochemical
Description: 1) Lipid 12 dissolved in chloroform was placed in a round bottom flask and the solvent evaporated by rotation under argon to produce a uniform film of dry lipid. Residual traces of chloroform were removed under vacuum (10^-3 mm Hg, 3 h). Dried lipid is suspended in HEPES buffer (10^-2 M,pH 7), vortexed for 5 ran., then probe sonicated (dial 7 on a Branson B30 sonifier, Power 4, Pulse 50, 3 mn.) 15° C. above phase transition temperature, to produce a clear bluish dispersion. Final concentration of 12 is 3% (w/v). Average size measurements were realised by light scattering on a Coulter Model N4SD, sub-Micron Particle Analyser: 0,12 μm.
2) Same dispersion procedure applied to powder lipid 12 produced a clear dispersion with an average particle size 0,12 μm.
Liposomes were observed by electronic microscopy after freeze-etching as unilamellar and multilamellar vesicles.

[6] = Table I, 3% compound (Ref.: 3% EYP), 50% w/v F-decalin, 1 month at 50° C.
[7] = Table I, 3% compound (Ref.: 3% EYP), 50% w/v F-decalin, microfluidization
[8] = Table III, 1% compound + 2% EYP (Ref.: 3% EYP), 20% w/v F-decalin, 1 month at 25° C.
[9] = Table III, 1% compound + 2% EYP (Ref.: 3% EYP), 20% w/v F-decalin, sonication
[10] = Table III, 1% compound + 2% EYP (Ref.: 3% EYP), 20% w/v F-decalin, sonication, stored at 25° C.
[11] = Table IV, 0.66% compound + 1.33% EYP, 100% w/v F-decalin, stored at 50° C.

| Compound | activity ([1]; 1 g/l in 9% of NaCl) | viability ([1]; 1 g/l in 9% of NaCl) | concentration of which injection caused no deaths and did not perturb the normal growth (mice) | γs (surface tension) ([3]; 1 g/l in water) | γi (interfacial tension between water and perfluorodecalin) ([4]; 1 g/l in water) | Spreading Coef. ([4]; 1 g/l in water) | Relative Increase % (particle size) [2, 8] | Average Particle Size After Preparation [2, 9] | Average Particle Size After 1 month [2, 10] | other results |
| --- | --- | --- | --- | --- | --- | --- | --- | --- | --- | --- |
| C[N+](C)(C)CCOP(=O)([O-])OCC(COC(=O)CCCCCCCCCCC(F)(F)C(F)(F)C(F)(F)C(F)(F)C(F)(F)C(F)(F)F)OC(=O)CCCCCCCCCCC(F)(F)C(F)(F)C(F)(F)C(F)(F)C(F)(F)C(F)(F)F (racemic) [Compound 10, 1,2-di[(11-F-hexyl)undecaoyl] 3-[2'-(N,N,N-trimethylamino)ethyl] phosphoryl rac-glycerol] | 99% | 95% | 30000 µg/mL |  |  |  |  |  |  |  |
| C[N+](C)(C)CCOP(=O)([O-])OCC(COC(=O)CCCCCCCCCCC(F)(F)C(F)(F)C(F)(F)C(F)(F)F)OC(=O)CCCCCCCCCCC(F)(F)C(F)(F)C(F)(F)C(F)(F)F (racemic) [Compound 11, 1,2-di [(11-F-butyl)undecaoyl] 3-[2'-(N,N,N-trimethylamino)ethylphosphoryl] rac-glycerol] | 60% | 83% | 100000 µg/mL |  |  |  |  |  |  | Relative Increase % (particle size) ([2]; Table III, 0.66% compound + 1.33% EYP (Ref.: 2% EYP), 50% w/v F-decalin, 1 month at 50° C.): 35%; Average Particle Size After Preparation ([2]; Table III, 0.66% compound + 1.33% EYP (Ref.: 2% EYP), 50% w/v F-decalin, sonication): 0.37 μm; Average Particle Size After 1 month ([2]; Table III, 0.66% compound + 1.33% EYP (Ref.: 2% EYP), 50% w/v F-decalin, sonication, stored at 50° C.): 0.50 μm; increase in average particle size ([2]; sonication): 10% |
| O=P(OCCC(F)(F)C(F)(F)C(F)(F)C(F)(F)C(F)(F)C(F)(F)F)(N1CCOCC1)N1CCOCC1 [Compound 1, [2-(F-hexyl)ethyl] dimorpholinophosphoramidate] |  |  |  | 22.5 mNm^-1 | 2.0 mNm^-1 | -1.6 mNm^-1 |  |  |  |  |
| C[N+](C)(C)CCOP(=O)([O-])OCC(COCCCCCCCCCCCC(F)(F)C(F)(F)C(F)(F)C(F)(F)F)OCCCCCCCCCCCC(F)(F)C(F)(F)C(F)(F)C(F)(F)F (racemic) [Compound 13, 1,2-di [(11-F-butyl)undecyl] 3-[2'-(N,N,N-trimethylamino)ethylphosphoryl] rac-glycerol] | 55% | 91% | 60000 µg/mL |  |  |  |  |  |  |  |
| COCCOP(=O)(OCCOC)OCC(COC(=O)CCCCCCCCCCC(F)(F)C(F)(F)C(F)(F)C(F)(F)C(F)(F)C(F)(F)F)OC(=O)CCCCCCCCCCC(F)(F)C(F)(F)C(F)(F)C(F)(F)C(F)(F)C(F)(F)F (racemic) [Compound 14, [1',2'-di [(11-F-hexyl)undecanoyl]rac-glyceryl] [di (2'-methoxy-ethyl)] phosphate] |  |  | 10000 µg/mL |  |  |  |  |  |  |  |
| C[N+](C)(C)CCOP(=O)([O-])OCCCCCCCCCCCC(F)(F)C(F)(F)C(F)(F)C(F)(F)C(F)(F)C(F)(F)C(F)(F)C(F)(F)F [Compound 6, [11-(F-octyl)undecyl] [2'-N,N,N trimethylamino ethyl] phosphate] |  |  | 1000 µg/mL | 30.0 mNm^-1 | 9.4 mNm^-1 | -16.5 mNm^-1 | 110% | 0.17 μm | 0.36 μm | Relative Increase % (particle size) [2, 6]: 44%; Average Particle Size After 1 month at 50° C. [2, 7]: 0.36 μm; Average Particle Size After Preparation [2, 7]: 0.25 μm |
| O=P(OCCC(F)(F)C(F)(F)C(F)(F)C(F)(F)C(F)(F)C(F)(F)C(F)(F)C(F)(F)F)(N1CCOCC1)N1CCOCC1 [Compound 2, [2-(F-octyl)ethyl] dimorpholinohosphoramidate] | 67% | 106% |  | 22.5 mNm^-1 | 1.0 mNm^-1 | -0.6 mNm^-1 |  |  |  |  |
| C[N+](C)(C)CCOP(=O)([O-])OCCC(F)(F)C(F)(F)C(F)(F)C(F)(F)C(F)(F)C(F)(F)C(F)(F)C(F)(F)F [Compound 5, [2-(F-octyl)ethyl] [2'-N,N,N trimethylamino ethyl] phosphate] |  |  | 1000 µg/mL | 23.0 mNm^-1 | 4.5 mNm^-1 | -4.6 mNm^-1 | 100% | 0.15 μm | 0.29 μm | activity ([1]; 10 g/l in 9% of NaCl): 96%; viability ([1]; 10 g/l in 9% of NaCl): 102%; emulsion stability (in words) ([2]; 50% w/v F-decalin emulsions, 1% surfactant where stated): remain stable at 50 °C for at least one month; Average Particle Size After Preparation ([2]; Table I, 1% compound (Ref.: 1% EYP), 50% w/v F-decalin, microfluidization): 0.48 μm; Relative Increase % (particle size) ([2]; Table I, 1% compound, 50% w/v F-decalin, 1 month at 50° C.): 14%; Average Particle Size After 1 month at 50° C. ([2]; Table I, 1% compound, 50% w/v F-decalin, microfluidization): 0.55 μm; Relative Increase % (particle size) [2, 6]: 50%; Average Particle Size After 1 month at 50° C. [2, 7]: 0.30 μm; Average Particle Size After Preparation [2, 7]: 0.20 μm; Average Particle Size After Preparation ([2]; Table IV, 0.66% compound + 1.33% EYP (Ref.: 2% EYP), 100% w/v F-decalin, microfluidization): 0.6 μm; Average Particle size After 3 months ([2]; Table IV, 0.66% compound + 1.33% EYP (Ref.: 2% EYP), 100% w/v F-decalin, stored at 50° C.): 1.1 μm; Average Particle size After 8 months [2, 11]: 1.35 μm; Relative Increase % (particle size) [2, 11]: 125% |
| O=P(OCCCCCCCCCCCC(F)(F)C(F)(F)C(F)(F)C(F)(F)C(F)(F)C(F)(F)C(F)(F)C(F)(F)F)(N1CCOCC1)N1CCOCC1 [Compound 4, [11-(F-octyl)undecyl] dimorpholinohosphoramidate] |  |  |  |  |  |  | 50% | 0.26 μm | 0.39 μm | γs (surface tension) ([3]; 0.1 g/l in water): 22.5 mNm^-1; γi (interfacial tension between water and perfluorodecalin) ([4]; 0.1 g/l in water): 1.4 mNm^-1; Spreading Coef. ([4]; 0.1 g/l in water): -1.0 mNm^-1 |
| C[N+](C)(C)CCOP(=O)([O-])OCC(COC(=O)CCCCC(F)(F)C(F)(F)C(F)(F)C(F)(F)C(F)(F)C(F)(F)F)OC(=O)CCCCC(F)(F)C(F)(F)C(F)(F)C(F)(F)C(F)(F)C(F)(F)F (racemic) [Compound 12, 1,2-di [(11-F-hexyl)pentanoyl] 3-[2' -(N,N,N-trimethylamino)ethylphosphoryl] rac-glycerol] |  |  | 100000 µg/mL |  |  |  |  |  |  | Average size of liposomes ([5]; 3% (w/v), from dried lipid film, HEPES buffer pH 7, probe sonicated, light scattering): 0,12 μm; average particle size of dispersion ([5]; same dispersion procedure applied to powder lipid): 0,12 μm; increase in average particle size ([2]; sonication): 10% |
| O=P(OCCCCCCCCCCCC(F)(F)C(F)(F)C(F)(F)C(F)(F)C(F)(F)C(F)(F)F)(N1CCOCC1)N1CCOCC1 [Compound 3, [11-(F-hexyl)undecyl] dimorpholinohosphoramidate] |  |  |  |  |  |  | 50% | 0.26 μm | 0.39 μm | γs (surface tension) ([3]; 0.1 g/l in water): 24.4 mNm^-1; γi (interfacial tension between water and perfluorodecalin) ([4]; 0.1 g/l in water): 7.5 mNm^-1; Spreading Coef. ([4]; 0.1 g/l in water): -0.9 mNm^-1 |
